According to ChEMBL document CHEMBL6153063 (Eur J Med Chem, 2025):
Active and inactive are the calls of the source. The calls are words filed in the database; no cut-off is given here.

Tests used:
[1] = cells; settings: Homo sapiens, Venetoclax-resistant MV4-11, 48 h
[2] = test system: MV4-11; assay: Inhibition of cell viability in human MV4-11 cells incubated for 48 hrs in presence of VEN by Alamar blue assay; settings: MV4-11, 48 h
[3] = test system: MV4-11; assay: Induction of apoptosis in human MV4-11 cells assessed as viable cells at 200 nM incubated for 48 hrs in presence of VEN by Annexin V/7AAD staining based flow cytometry (reference value: 95.6 %); format: functional; settings: read-out: Activity
[4] = Inhibition of cell viability in human Venetoclax-resistant MV4-11 cells overexpressing Bcl-2 incubated for 48 hrs by Alamar blue assay; format: functional, cell-based; settings: Venetoclax-resistant MV4-11, 48 h
[5] = Inhibition of cell viability in human Gilteritinib-resistant MOLM-14 cells expressing FLT3 F691L mutant incubated for 48 hrs by Alamar blue assay; format: functional, cell-based; settings: Gilteritinib-resistant MOLM-14, 48 h
[6] = cells; settings: Homo sapiens, Gilteritinib-resistant MOLM-14, 48 h
[7] = test system: MV4-11; assay: Inhibition of cell viability in human MV4-11 cells incubated for 48 hrs by Alamar blue assay; format: functional, cell-based; settings: MV4-11, 48 h
[8] = test system: MV4-11; assay: Induction of apoptosis in human MV4-11 cells assessed as late apoptotic cells at 200 nM incubated for 48 hrs in presence of VEN by Annexin V/7AAD staining based flow cytometry (reference value: 1.7 %); format: functional
[9] = test system: MOLM-14; assay: Inhibition of cell viability in human MOLM-14 cells incubated for 48 hrs by Alamar blue assay; format: functional, cell-based; settings: MOLM-14, 48 h
[10] = test system: MOLM-14; assay: Inhibition of cell viability in human MOLM-14 cells incubated for 48 hrs in presence of VEN by Alamar blue assay; settings: MOLM-14, 48 h
[11] = test system: MV4-11; assay: Induction of apoptosis in human MV4-11 cells assessed as early apoptotic cells at 200 nM incubated for 48 hrs in presence of VEN by Annexin V/7AAD staining based flow cytometry (reference value: 2.3 %); format: functional
[12] = test system: MV4-11; assay: Induction of apoptosis in human MV4-11 cells assessed as viable cells at 200 nM incubated for 48 hrs by Annexin V/7AAD staining based flow cytometry (reference value: 95.6 %); format: functional; settings: read-out: Activity
[13] = test system: Gilteritinib-resistant MOLM-14; assay: Induction of apoptosis in human Gilteritinib-resistant MOLM-14 cells expressing FLT3 F691L mutant upto 200 nM incubated for 48 hrs by Annexin V/7AAD staining based flow cytometry; format: functional, cell-based
[14] = test system: Venetoclax-resistant MV4-11; assay: Induction of apoptosis in human Venetoclax-resistant MV4-11 cells overexpressing Bcl-2 upto 200 nM incubated for 48 hrs by Annexin V/7AAD staining based flow cytometry; format: functional, cell-based
[15] = test system: MV4-11; assay: Induction of apoptosis in human MV4-11 cells assessed as late apoptotic cells at 200 nM incubated for 48 hrs by Annexin V/7AAD staining based flow cytometry (reference value: 1.7 %); format: functional
[16] = target: T1, Receptor-type tyrosine-protein kinase FLT3 (Homo sapiens, UniProt P36888); assay: Binding affinity to FLT3 (unknown origin) assessed as dissociation constant incubated for 1 hr by KINOMEscan assay
T1 sequence (P36888 whole entry): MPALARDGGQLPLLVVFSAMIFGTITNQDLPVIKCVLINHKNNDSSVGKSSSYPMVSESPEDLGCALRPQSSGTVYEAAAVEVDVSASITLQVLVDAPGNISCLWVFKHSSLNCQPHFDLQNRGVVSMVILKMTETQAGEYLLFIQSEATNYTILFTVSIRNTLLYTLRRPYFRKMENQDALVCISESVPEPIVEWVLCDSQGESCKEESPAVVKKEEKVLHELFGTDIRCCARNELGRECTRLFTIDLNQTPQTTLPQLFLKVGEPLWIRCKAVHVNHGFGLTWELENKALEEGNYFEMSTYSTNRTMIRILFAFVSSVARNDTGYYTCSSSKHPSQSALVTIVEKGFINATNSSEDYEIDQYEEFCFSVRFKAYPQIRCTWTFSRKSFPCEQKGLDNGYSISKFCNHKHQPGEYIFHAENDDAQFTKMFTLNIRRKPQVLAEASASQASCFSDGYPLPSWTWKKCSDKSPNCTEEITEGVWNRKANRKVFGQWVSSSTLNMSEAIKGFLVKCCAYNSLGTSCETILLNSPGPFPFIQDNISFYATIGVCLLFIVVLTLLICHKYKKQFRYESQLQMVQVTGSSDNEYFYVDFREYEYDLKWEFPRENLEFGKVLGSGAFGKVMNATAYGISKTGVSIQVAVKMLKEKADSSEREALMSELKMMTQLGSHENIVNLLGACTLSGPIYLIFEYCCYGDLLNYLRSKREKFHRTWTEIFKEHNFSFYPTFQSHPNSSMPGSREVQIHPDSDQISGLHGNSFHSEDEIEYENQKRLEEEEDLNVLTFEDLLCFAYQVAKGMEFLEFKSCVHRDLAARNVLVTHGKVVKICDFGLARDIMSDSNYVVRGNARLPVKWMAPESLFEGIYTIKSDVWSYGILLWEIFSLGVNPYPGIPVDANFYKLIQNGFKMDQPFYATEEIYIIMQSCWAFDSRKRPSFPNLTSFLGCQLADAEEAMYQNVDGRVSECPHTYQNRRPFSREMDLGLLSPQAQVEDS

[17] = test system: MV4-11; assay: Induction of apoptosis in human MV4-11 cells assessed as early apoptotic cells at 200 nM incubated for 48 hrs by Annexin V/7AAD staining based flow cytometry (reference value: 2.3 %); format: functional
[18] = target: Apoptosis regulator Bcl-2 (Homo sapiens, UniProt P10415); assay: Binding affinity to Bcl-2 (unknown origin) assessed as dissociation constant incubated for 1 hr by KINOMEscan assay
[19] = test system: MOLM-14; assay: Inhibition of cell viability in human MOLM-14 cells incubated for 48 hrs in presence of GIL by Alamar blue assay; format: functional, cell-based; settings: MOLM-14, 48 h
[20] = Inhibition of cell viability in human Gilteritinib-resistant MOLM-14 cells expressing FLT3 F691L mutant incubated for 48 hrs in presence of GIL by Alamar blue assay; format: functional, cell-based; settings: Gilteritinib-resistant MOLM-14, 48 h
[21] = test system: MV4-11; assay: Inhibition of cell viability in human MV4-11 cells incubated for 48 hrs in presence of GIL by Alamar blue assay; settings: MV4-11, 48 h
[22] = test system: MV4-11; assay: Induction of apoptosis in human MV4-11 cells assessed as late apoptotic cells at 200 nM incubated for 48 hrs in presence of GIL by Annexin V/7AAD staining based flow cytometry (reference value: 1.7 %); format: functional
[23] = test system: MV4-11; assay: Induction of apoptosis in human MV4-11 cells assessed as viable cells at 200 nM incubated for 48 hrs in presence of GIL by Annexin V/7AAD staining based flow cytometry (reference value: 95.6 %); format: functional; settings: read-out: Activity
[24] = test system: MV4-11; assay: Induction of apoptosis in human MV4-11 cells assessed as early apoptotic cells at 200 nM incubated for 48 hrs in presence of GIL by Annexin V/7AAD staining based flow cytometry (reference value: 2.3 %); format: functional
[25] = Inhibition of cell viability in human Venetoclax-resistant MV4-11 cells overexpressing Bcl-2 incubated for 48 hrs in presence of GIL by Alamar blue assay; format: functional, cell-based; settings: Venetoclax-resistant MV4-11, 48 h

Apoptosis regulator Bcl-2, sequence (P10415 whole entry): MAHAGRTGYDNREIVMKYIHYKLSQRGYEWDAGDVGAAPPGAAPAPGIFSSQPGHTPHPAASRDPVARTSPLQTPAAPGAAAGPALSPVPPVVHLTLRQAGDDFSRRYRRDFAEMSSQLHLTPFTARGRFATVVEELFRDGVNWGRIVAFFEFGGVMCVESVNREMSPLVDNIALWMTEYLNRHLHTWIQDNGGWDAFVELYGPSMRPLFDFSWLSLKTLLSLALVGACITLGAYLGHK

SMILES | IC50 [4] [nM] | IC50 [5] [nM] | IC50 [7] [nM] | IC50 [9] [nM] | further results
CCc1nc(C(N)=O)c(Nc2ccc(N3CCC(N4CCN(C)CC4)CC3)c(OC)c2)nc1NC1CCOCC1 [GILTERITINIB] | 53.7 | 128 | 14.7 | 25.7 | IC50 [1]: 8.7 nM; IC50 [2]: 2.6 nM; viability at 0.2 µM [3]: 0.4%; IC50 [6]: 63.2 nM; Activity [8]: 66.9%; IC50 [10]: 16.4 nM; Activity [11]: 31.1%
CCc1nc(C(N)=O)c(Nc2ccc(N3CCN(C(=O)CNc4ccc(S(=O)(=O)NC(=O)c5ccc(N6CCN(CC7=C(c8ccc(Cl)cc8)CC(C)(C)CC7)CC6)cc5Oc5cnc6[nH]ccc6c5)cc4[N+](=O)[O-])CC3)c(OC)c2)nc1NC1CCOCC1 | 162 | 1700 | 54.7 | 265 | viability at 0.2 µM [12]: 52.2%; Activity [13]: inactive; Activity [14]: inactive; Activity [15]: 27.9%; Kd [16]: 63 nM; Activity [17]: 18.6%; Kd [18]: 4.25 nM
CC1(C)CCC(CN2CCN(c3ccc(C(=O)NS(=O)(=O)c4ccc(NCC5CCOCC5)c([N+](=O)[O-])c4)c(Oc4cnc5[nH]ccc5c4)c3)CC2)=C(c2ccc(Cl)cc2)C1 [VENETOCLAX] | 756 | 2010 |  | 1700 | IC50 [19]: 16.4 nM; IC50 [20]: 63.2 nM; IC50 [21]: 2.6 nM; Activity [22]: 66.9%; viability at 0.2 µM [23]: 0.4%; Activity [24]: 31.1%; IC50 [25]: 8.7 nM
CCc1nc(C(N)=O)c(Nc2ccc(N3CCC(N4CCN(C(=O)CNc5ccc(S(=O)(=O)NC(=O)c6ccc(N7CCN(CC8=C(c9ccc(Cl)cc9)CC(C)(C)CC8)CC7)cc6Oc6cnc7[nH]ccc7c6)cc5[N+](=O)[O-])CC4)CC3)c(OC)c2)nc1NC1CCOCC1 | 209 | > 10000 | 33.7 | 1070 | viability at 0.2 µM [12]: 30.7%; Activity [13]: inactive; Activity [14]: inactive; Activity [15]: 42.1%; Kd [16]: 205 nM; Activity [17]: 25.7%; Kd [18]: 0.91 nM
CCc1nc(C(N)=O)c(Nc2ccc(N3CCN(C(=O)CCCCCCNc4ccc(S(=O)(=O)NC(=O)c5ccc(N6CCN(CC7=C(c8ccc(Cl)cc8)CC(C)(C)CC7)CC6)cc5Oc5cnc6[nH]ccc6c5)cc4[N+](=O)[O-])CC3)c(OC)c2)nc1NC1CCOCC1 | 280 | 3280 | 107 | 531 | 
CCc1nc(C(N)=O)c(Nc2ccc(N3CCN(C(=O)C4CCN(c5ccc(S(=O)(=O)NC(=O)c6ccc(N7CCN(CC8=C(c9ccc(Cl)cc9)CC(C)(C)CC8)CC7)cc6Oc6cnc7[nH]ccc7c6)cc5[N+](=O)[O-])CC4)CC3)c(OC)c2)nc1NC1CCOCC1 | 3220 | > 10000 | 968 | > 10000 | 
CCc1nc(C(N)=O)c(Nc2ccc(N3CCC(N4CCN(C(=O)CCCCCCNc5ccc(S(=O)(=O)NC(=O)c6ccc(N7CCN(CC8=C(c9ccc(Cl)cc9)CC(C)(C)CC8)CC7)cc6Oc6cnc7[nH]ccc7c6)cc5[N+](=O)[O-])CC4)CC3)c(OC)c2)nc1NC1CCOCC1 | 907 | > 10000 | 94 | 3330 | 
CCc1nc(C(N)=O)c(Nc2ccc(N3CCC(N4CCN(C(=O)C5CCN(c6ccc(S(=O)(=O)NC(=O)c7ccc(N8CCN(CC9=C(c%10ccc(Cl)cc%10)CC(C)(C)CC9)CC8)cc7Oc7cnc8[nH]ccc8c7)cc6[N+](=O)[O-])CC5)CC4)CC3)c(OC)c2)nc1NC1CCOCC1 | > 10000 | > 10000 | 1170 | > 10000 | 
